Laboratory results from paper PMC9921564, “Novel Indole-Containing Hybrids Derived from Millepachine: Synthesis, Biological Evaluation and Antitumor Mechanism Study” (Molecules, 2023).

Legend:
A549 cells = test: cell cycle analysis by flow cytometry (PI); format: cell-based, human; details: 24 h, control 14.92%
Experimental: Microtubules play an important role in maintaining the normal process of cell mitosis.
Figure 3 Compound 14b induced cell cycle arrest at the G2/M phase. (A) The PI-stained DNA content detected by flow cytometry. A549 cells were treated with or without compound 14b at concentrations of 10, 20 and 50 nM for 24 h; then, the cells were harvested for cell cycle analysis by flow cytometry. (B) Quantitative analysis of the percentage of cells in each cell cycle phase by CytExpert analysis software. The experiments were performed at least three times, and the results of the representative experiments are shown.
S Ⅳ. Biological evaluation methods
The cells grown in logarithmical phase were seeded in 96-well plates with the density of 5×10^3/well.
After 24 h, the medium containing different concentrations of tested compounds were added for another 48 h. Then, CCK-8 reagents were added to cells and continued to culture for 2 h. The optical density was recorded with a microplate reader at 570 nm (Thermo Scientific, Varioskan LUX). All the experiments were repeated independently at least three times and the IC50 values were calculated […]
S2. In vitro tubulin polymerization inhibition assay
The in vitro tubulin polymerization inhibition assay was conducted according to the manufacturer ’s instruction (cytoskeleton, cat. no. BK011P). Briefly, 5 μL of the tested compounds at the indicated concentrations which were prepared with the buffer solution (containing 80.0 mM piperazine-N,N-bis(2-ethanesulfonic acid) sequiso-dium salt (pH 6.9), 10.2% glycerol, 2.0 mM MgCl2, 1 mM GTP, and 0.5 mM EGTA) was added to the plate. After the mixture was warmed to 37 °C for 1 min, the reaction was initiated by the addition of 55 μL of the tubulin solution which was kept on ice in prior.
The fluorescence intensity enhancement (emission wavelength is 410 nm, excitation wavelength is 340 nm) was recorded every 60 s for 60 min in a multifunction microplate reader (Molecular Devices, Flex Station 3). […]

[1] = molecular target: tubulin (colchicine binding site) (Sus scrofa, UniProt P02554); test: colchicine competitive inhibition (binding) assay
Experimental: Tubulin–microtubule homeostasis is crucial for cell mitosis.
Figure 2 Effect of compound 14b on tubulin. […] The experiments were performed at least three times, and representative images are shown. Scale bars are 10 μm. […] The backbone of tubulin is shown in ribbon representation (α-tubulin, yellow; β-tubulin, green). […] The data were shown as mean ± SE (standard error) of at least three independent experiments.

Question: What does the source list for COc1ccc(C(=O)c2ccc3c(ccn3C)c2)c2c1C=CC(C)(C)O2 [compound 14b, (5-methoxy-2,2-dimethyl-2H-chromen-8-yl)(1-methyl-1H-indol-5-yl)methanone]?
Answer: percentage of cells in G2/M (A549 cells; A549, 10 nM): 26.88%; percentage of cells in G2/M (A549 cells; A549, 20 nM): 35.02%; percentage of cells in G2/M (A549 cells; A549, 50 nM): 52.67%; IC50 [1]: 1.04 ± 0.02 µM
